The results in this text go back to patent publication US20240246934A1, “QUINAZOLINE-BASED COMPOUND, COMPOSITION, AND APPLICATION OF QUINAZOLINE-BASED COMPOUND” (BEIJING SCITECH-MQ PHARMACEUTICALS LIMITED, priority 2021, published 2024).

One test relates to NCI-N87 cells. Put plainly: Inhibition of cell proliferation, CTG method, NCI-N87. It counts as cell-based. The conditions noted are these: Homo sapiens, 72 hours, read-out: hNCI-N87 IC50. From the text: The present application examined the in vitro anti-proliferative activity of the compounds of the present disclosure against in vitro cultured BT474, NCI-N87, Ba/F3-EGFR-VIII and Ba/F3 HER2 A775_G776insYVMA and Ba/F3 EGFR D770_N771insSVD cell lines by CTG method.
Reagents and consumables: RPMI1640 (ThermoFisher, Cat. No. C11875500BT); fetal bovine serum (Hyclone, Cat. No. SV30087.03); 0.25% trypsin-EDTA (ThermoFisher, Cat. No. 25200-072); penicillin-streptomycin (Hyclone, Cat. No. SV30010); DMSO (Amresco, Cat. No. 0231-500ML); CTG assay kit (Promega, Cat. No. G924C); 96-well plate (Corning, Cat. No. 3603); multifunctional plate reader (Perkin Elmer, Cat. No. Envision)
Cell lines: BT474 (from the cell bank of Chinese Academy of Sciences), NCI-N87 (from ATCC), Ba/F3-EGFR-VIII, Ba/F3 HER2 A775_G776insYVMA and Ba/F3 EGFR D770_N771insSVD (all from KYinno Biotechnology (Beijing) Co., Ltd.); all of the above cells were cultured with RPMI1640 medium containing 10% fetal bovine serum, 100 U/mL penicillin, and 100 μg/mL streptomycin in the culture process.
1. The assay compound was dissolved with DMSO to form a stock solution and a gradient dilution was performed, followed by dilution with the corresponding medium to obtain a solution with 5-fold working concentration.
2. Cells in logarithmic growth phase were adjusted to specific cell densities by dilution with culture medium, and 80 μL of cell suspension was added to a 96-well plate, such that plating densities of cells of BT474, NCI-N87, Ba/F3-EGFR-VIII, Ba/F3 HER2 A775_G776insYVMA and Ba/F3 EGFR D770_N771insSVD were all 3000 cells/well. The cells of Ba/F3-EGFR-VIII, Ba/F3 HER2 A775_G776insYVMA and Ba/F3 EGFR D770_N771insSVD were used directly in the next step (treatment with compound), whereas the BT474 and NCI-N87 needed to be cultured overnight in a 37° C., 5% carbon dioxide gas incubator to adhere to the wall, and then treated with compounds.
3. 20 μL of compound solution was added to each well of the 96-well plate that had been inoculated with cells. The highest concentration of the assayed compound was 10 μM, 4-fold serial dilution, a total of 9 concentrations, and duplicate wells. A control group without compound was also set up.
4. The cells were cultured for another 72 hours, and then cell viability was detected by CTG assay kit. Signal values were read with a multifunctional plate reader (Perkin Elmer). GraphPad Prism software was used to create a dose-response curve and IC50 was calculated.

Test [1] concerns Ba/F3 ERBB2 A775_G776insYVMA. Put plainly: Efficacy in nude mouse tumor-bearing model of Ba/F3 ERBB2 A775_G776insYVMA. It counts as in vivo, BALB/c nude mice. As to conditions: 30 mg/kg.
The target in another test is EGFR^WT kinase (Homo sapiens, UniProt P00533). Put plainly: EGFR^WT kinase assay (ULight/PT66 TR-FRET). Type of test: biochemical. In short, it runs like this:
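Enzyme preincubated 5 min with compound (11-point 3-fold series, duplicate), then ULight-JAK-1 (Tyr1023) peptide and ATP added at 4× stocks of 400 nM and 600 μM; 120 min reaction at room temperature. PT66 antibody TR-FRET read after 60 min; IC50 fitted from inhibition rates.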
A general note: Time-resolved FRET reads energy transfer from a long-lived donor to a nearby acceptor.

SMILES strings stand for the structures. pIC50: −log10 of the molar value.

Chain of EGFR^WT kinase (P00533 25-1210): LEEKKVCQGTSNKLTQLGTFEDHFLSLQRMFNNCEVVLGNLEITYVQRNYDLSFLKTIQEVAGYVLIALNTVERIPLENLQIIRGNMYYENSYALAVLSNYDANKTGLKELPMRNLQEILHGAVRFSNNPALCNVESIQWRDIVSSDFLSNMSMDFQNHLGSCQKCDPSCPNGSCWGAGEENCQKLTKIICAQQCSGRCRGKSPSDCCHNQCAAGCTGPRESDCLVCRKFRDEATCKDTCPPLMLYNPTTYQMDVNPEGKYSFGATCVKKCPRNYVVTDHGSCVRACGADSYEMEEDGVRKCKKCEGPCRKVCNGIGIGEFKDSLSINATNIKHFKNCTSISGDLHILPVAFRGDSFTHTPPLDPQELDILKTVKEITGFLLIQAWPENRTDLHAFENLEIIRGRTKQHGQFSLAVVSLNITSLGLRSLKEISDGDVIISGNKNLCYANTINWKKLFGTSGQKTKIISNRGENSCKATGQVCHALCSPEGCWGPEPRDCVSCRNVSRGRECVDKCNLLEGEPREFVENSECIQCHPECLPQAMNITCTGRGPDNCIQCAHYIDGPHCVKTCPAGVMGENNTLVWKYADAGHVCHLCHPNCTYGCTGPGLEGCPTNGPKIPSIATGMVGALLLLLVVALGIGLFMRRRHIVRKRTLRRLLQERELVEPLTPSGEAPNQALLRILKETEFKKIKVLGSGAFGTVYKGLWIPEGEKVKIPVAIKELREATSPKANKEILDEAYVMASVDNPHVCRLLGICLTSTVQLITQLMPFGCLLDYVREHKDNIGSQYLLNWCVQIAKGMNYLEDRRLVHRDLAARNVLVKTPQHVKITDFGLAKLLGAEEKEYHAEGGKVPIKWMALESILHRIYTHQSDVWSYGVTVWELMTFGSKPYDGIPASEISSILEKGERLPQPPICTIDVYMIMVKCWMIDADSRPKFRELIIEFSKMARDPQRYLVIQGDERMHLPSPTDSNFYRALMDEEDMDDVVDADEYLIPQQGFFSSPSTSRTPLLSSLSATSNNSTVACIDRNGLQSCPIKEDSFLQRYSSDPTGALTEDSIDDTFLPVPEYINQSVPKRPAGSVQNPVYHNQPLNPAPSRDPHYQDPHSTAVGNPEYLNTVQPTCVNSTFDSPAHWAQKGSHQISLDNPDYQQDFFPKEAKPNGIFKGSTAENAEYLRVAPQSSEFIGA

For the compound `COc1c(NC(=O)/C=C/[C@H]2CCCN2C)ccc2ncnc(Nc3ccc(OCc4ccccn4)c(Cl)c3)c12` [Example 4, (R,E)-N-(4-((3-chloro-4-(pyridin-2-ylmethoxy)phenyl)amino)-5-methoxyquinazolin-6-yl)-3-(1-methylpyrrolidin-2-yl)acrylamide], the pIC50 was over 9.00 in the test with NCI-N87 cells and over 8.00 on EGFR^WT kinase. Further, the “T/C (%)” value in test [1] (QD×14, PO, day 14) stood at 2.6%.

Regarding `COCCCOc1c(NC(=O)/C=C/[C@H]2CCCN2C)ccc2ncnc(Nc3ccc(OCc4ccccn4)c(Cl)c3)c12` [Example 9, (R,E)-N-(4-((3-chloro-4-(pyridin-2-ylmethoxy)phenyl)amino)-5-(3-methoxypropoxy)quinazolin-6-yl)-3-(1-methylpyrrolidin-2-yl)acrylamide], in test [1] (QD×15, PO, day 15), the “T/C (%)” value is 3.85%. Further, the pIC50 at EGFR^WT kinase is over 8.00.

For the compound `CCN1CCC[C@@H]1/C=C/C(=O)Nc1ccc2ncnc(Nc3ccc(OCc4ccccn4)c(Cl)c3)c2c1OC` [Example 29, (R,E)-N-(4-((3-chloro-4-(pyridin-2-ylmethoxy)phenyl)amino)-5-methoxyquinazolin-6-yl)-3-(1-ethylpyrrolidin-2-yl)acrylamide], in test [1] (QD×11, PO, day 11), the “T/C (%)” value is reported as 18.7%. The same compound gave a pIC50 at EGFR^WT kinase of over 8.00.

What is called pIC50 is the IC50 on a negative log10 scale, so that one unit is a factor of ten.
